Read-outs that look alike come from different tables or passages of the source.
Tests used:
MCF7 cells = assay: Cell survival, clonogenic assay; type: cell-based, human; details: 1 week growth
HeLa cells = assay: Cell survival, clonogenic assay; type: cell-based, human; details: 1 week growth
[1] = tested on: normal primary human cells (human primary fibroblast cells); assay: Cell survival, clonogenic assay; type: cell-based; details: same conditions (0.1 mM to 1 mM)
Excerpt: These cells are normal human skin fibroblasts.

H520 NSCLC cells = assay: cells; details: Homo sapiens, read-out: LC50
H460 NSCLC cells = assay: cells; details: Homo sapiens, read-out: LC50
H661 NSCLC cells = assay: cells; details: Homo sapiens, read-out: LC50
[2] = tested on: Lewis lung carcinoma (M47) lung metastases; assay: Lewis lung carcinoma lung metastases; type: in vivo, mouse (C57BL/10); details: for Number of Metastases/Lung: Blank 34 ± 3
Excerpt: All animals were inoculated at the same site.
Tumour growth was monitored over time. […] Tumours, organs or both were removed under sterile conditions. Tumours were weighed.
Animals were subjected to surgery to remove the primary tumour. The mice were lightly anesthetized with Forane. The skin overlying the tumour was cleaned with betadine and ethanols, in a laminar flow hood. A small skin incision (0.5–1 cm) was made using a sterile scalpel, and the tumour was carefully separated from the normal tissues (skin and muscle). Lewis Lung carcinoma cells (at early stage of growth; 1–3 weeks) are a well localized tumour and separation was easy to achieve without any significant damage to normal tissues. The tumour was removed, weighed and in some cases fixed for histopathology purposes. The wound was closed with surgical stainless steel clips (Autoclips; 9 mm; Clay Adams, Inc. Parsippany, N.J.). This site was further disinfected with betadine and the animal was housed as described earlier.
In this group, mice were randomized after surgery into a group of 5 per cage. Cages were randomly assigned to specific experimental groups. The mice were then labelled by numbers using the “ear punching” method. Mice were checked on a daily basis to ensure the absence of infection. Animals with discomfort were sacrificed immediately. For each experiment, an additional extra spared group of control mice was included to determine the optimal timing for sacrifice in order to obtain a significant number of well localized lung metastases. This group was subjected to the same experimental procedure as group 1 with the exception of drug treatment.
The pentamidine and cisplatinum were injected by intraperitoneal injections. Adriamycin was injected intravenously.
At the end of each experiment (a total of 5–8 weeks), animals were sacrificed by dislocation and autopsied. Tumours, organs or both were removed under sterile conditions [using a laminar flow hood]. Tumours were weighed. […] Lungs were fixed in 10% Bouin's fixative diluted in a formalin solution, and lung surface metastases were counted using a stereomicroscope at 4× magnification or a magnifying-glass, and in some cases lungs were embedded in paraffin wax according to standard procedures. Embedded tissues were used to confirm metastases and further examine histopathological changes.

[3] = mouse, in vivo, ip
Procedure: (§1) A preliminary study was conducted on non-tumour bearing mice to examine the maximal tolerable doses of pentamidine that can be used for antitumour studies. Three intraperitoneal injections (day 1, day 3, and day 5) were tested of 25, 50, 100 and 200 mg/Kg of body weight respectively.

[4] = tested on: MCF-7 breast cancer cells; assay: cells; details: Homo sapiens, read-out: LC50
HT29 colon cancer cells = assay: cells; details: Homo sapiens, read-out: LC50
[5] = tested on: RIF-1 radiation-induced fibrosarcoma tumour; assay: RIF tumour mouse model, polymer implant
[6] = Toxicity / maximal tolerable dose in non-tumour bearing mice; details: 100 mg/Kg ip, days 1, 3, 5, FIG. 8
Procedure: as §1

Question: Which “Concentration at which compound began to kill the cancer cells” value (MCF7 cells) does the source give for `N=C(N)c1ccc(OCCCCCOc2ccc(C(=N)N)cc2)cc1` [Pentamidine, pentamidine] here?
Answer: The value was 0.1 mM.

Question: And the Lethal concentration (MCF7 cells)?
Answer: The Lethal concentration was 1 mM.

Question: And the “Concentration at which compound began to kill the cancer cells” value (HeLa cells)?
Answer: The value was 0.1 mM.

Question: What about the Lethal concentration (HeLa cells) of the same molecule?
Answer: Its Lethal concentration is 1 mM.

Question: And the “Effect on survival of normal primary human cells” value [1]?
Answer: Its value is “no effect”.

Question: And the CC50 (H520 NSCLC cells; NCI-H520, 48 h)?
Answer: Its CC50 is 240 µM.

Question: What about the CC50 (H520 NSCLC cells; NCI-H520, 96 h) of the same molecule?
Answer: Its CC50 is 130 µM.

Question: And the CC50 (H460 NSCLC cells; NCI-H460, 48 h)?
Answer: The CC50 was 1340 µM.

Question: What about the CC50 (H460 NSCLC cells; NCI-H460, 96 h) of the same molecule?
Answer: The CC50 was 160 µM.

Question: And the CC50 (H661 NSCLC cells; NCI-H661, 48 h)?
Answer: Its CC50 is 150 µM.

Question: What about the CC50 (H661 NSCLC cells; NCI-H661, 96 h) of the same molecule?
Answer: The CC50 was 70 µM.

Question: What about the “Number of Metastases/Lung” value ([2]; 25 mg/kg) of the same molecule?
Answer: Its value is 23 ± 3.

Question: What about the “Inhibition of lung metastases versus saline-treated control” value ([2]; 50 mg/Kg, p<0.001, FIG. 16) of the same molecule?
Answer: The value was “more than 50%”.

Question: What about the “Number of Metastases/Lung” value ([2]; 50 mg/kg) of the same molecule?
Answer: The value was 10 ± 2.

Question: And the “Effect on metastases, 50 mg/Kg/ip pentamidine with 4 mg/kg/ip cisplatin” value ([2]; FIG. 17)?
Answer: The value was “enhanced effect”.

Question: And the “Effect on metastases, 50 mg/Kg/ip pentamidine with 5 mg/kg adriamycin/iv” value ([2]; FIG. 20)?
Answer: The value was “some beneficial effect”.

Question: What about the “Effect on lung metastases” value ([2]; doses of 10–25 mg/Kg) of the same molecule?
Answer: Its value is “no significant effect”.

Question: And the “Reduction of lung metastases” value ([2]; highest dosage tested)?
Answer: Its value is “reduced metastases in a dose dependant manner by a factor of three”.

Question: What about the “Most active dose on lung metastases” value ([2]; p<0.01) of the same molecule?
Answer: The value was 50 mg/kg.

Question: And the Highest tolerated dose [3]?
Answer: The Highest tolerated dose was 50 mg/kg.

Question: What about the CC50 ([4]; MCF7, 48 h) of the same molecule?
Answer: Its CC50 is 150 µM.

Question: And the CC50 ([4]; MCF7, 96 h)?
Answer: The CC50 was 80 µM.

Question: What about the CC50 (HT29 colon cancer cells; HT-29, 48 h) of the same molecule?
Answer: The CC50 was 270 µM.

Question: And the CC50 (HT29 colon cancer cells; HT-29, 96 h)?
Answer: Its CC50 is 60 µM.

Question: What about the “Efficacy at slowing tumour growth” value ([5]; biodegradeable polymer tumour implant, 100 mm^3 RIF tumours, FIG. 5) of the same molecule?
Answer: The value was “intermediate in its efficacy at slowing tumour growth between the saline control and 5-fluorouracil”.

Question: And the “Side effects in test mice” value ([5]; polymer implant plus radiation)?
Answer: Its value is “no obvious signs of any side effects”.

Question: What about the “Tumour growth, combination with radiation” value ([5]; polymer implant plus radiation 24 hours after implant, FIG. 6) of the same molecule?
Answer: Its value is “no significant tumour growth for a much longer period”.

Question: And the “Acute toxicity (death)” value [6]?
Answer: The value was “died because of acute toxicity”.

Source: US7115665B1, “Inhibitors of endo-exonuclease activity for treating cancer” (Onocozyme Pharma, Inc., priority 2000, dated 2006)
